In PMC7486443, “Generation of Phenothiazine with Potent Anti-TLK1 Activity for Prostate Cancer Therapy” (iScience, 2020):

Columns and labels:
Assay in all cases: biochemical
Parameters in all cases: DiscoverX KINOMEscan scanMAX competition binding panel, single concentration, percent of control; remaining binding: dose or concentration left out as unconfirmed
Conditions in all cases: KINOMEscan binding, percent of control; read-out: Table S4_SCANMAX REPORT - related to Fig. 1 / Percent Control
[1] = target: PIK3CA(E545A) (Homo sapiens, UniProt P42336, E545A)
[2] = target: ANKK1 (Homo sapiens, UniProt Q8NFD2)
[3] = target: MAK (Homo sapiens, UniProt P20794)
[4] = target: FLT4 (Homo sapiens, UniProt P35916)
[5] = target: T1, DMPK2 (Homo sapiens, UniProt Q6DT37)
T1 construct: gene CDC42BPG

[6] = target: PRKCH (Homo sapiens, UniProt P24723)
[7] = target: AKT2 (Homo sapiens, UniProt P31751)
[8] = target: DDR2 (Homo sapiens, UniProt Q16832)
[9] = target: EPHB2 (Homo sapiens, UniProt P29323)
[10] = target: EIF2AK1 (Homo sapiens, UniProt Q9BQI3)
[11] = target: T2, JAK2(JH1domain-catalytic) (Homo sapiens, UniProt O60674)
T2 construct: JH1domain-catalytic

[12] = target: T3, ABL1(Y253F)-phosphorylated (Homo sapiens, UniProt P00519, Y253F)
T3 construct: phosphorylated

[13] = target: HASPIN (Homo sapiens, UniProt Q8TF76)
[14] = target: T4, DLK (Homo sapiens, UniProt Q12852)
T4 construct: gene MAP3K12

[15] = target: DAPK2 (Homo sapiens, UniProt Q9UIK4)
[16] = target: T5, CTK (Homo sapiens, UniProt P42679)
T5 construct: gene MATK

[17] = target: NEK7 (Homo sapiens, UniProt Q8TDX7)
[18] = target: ERBB4 (Homo sapiens, UniProt Q15303)
[19] = target: MAST1 (Homo sapiens, UniProt Q9Y2H9)
Chain of MAST1 (Q9Y2H9 whole entry): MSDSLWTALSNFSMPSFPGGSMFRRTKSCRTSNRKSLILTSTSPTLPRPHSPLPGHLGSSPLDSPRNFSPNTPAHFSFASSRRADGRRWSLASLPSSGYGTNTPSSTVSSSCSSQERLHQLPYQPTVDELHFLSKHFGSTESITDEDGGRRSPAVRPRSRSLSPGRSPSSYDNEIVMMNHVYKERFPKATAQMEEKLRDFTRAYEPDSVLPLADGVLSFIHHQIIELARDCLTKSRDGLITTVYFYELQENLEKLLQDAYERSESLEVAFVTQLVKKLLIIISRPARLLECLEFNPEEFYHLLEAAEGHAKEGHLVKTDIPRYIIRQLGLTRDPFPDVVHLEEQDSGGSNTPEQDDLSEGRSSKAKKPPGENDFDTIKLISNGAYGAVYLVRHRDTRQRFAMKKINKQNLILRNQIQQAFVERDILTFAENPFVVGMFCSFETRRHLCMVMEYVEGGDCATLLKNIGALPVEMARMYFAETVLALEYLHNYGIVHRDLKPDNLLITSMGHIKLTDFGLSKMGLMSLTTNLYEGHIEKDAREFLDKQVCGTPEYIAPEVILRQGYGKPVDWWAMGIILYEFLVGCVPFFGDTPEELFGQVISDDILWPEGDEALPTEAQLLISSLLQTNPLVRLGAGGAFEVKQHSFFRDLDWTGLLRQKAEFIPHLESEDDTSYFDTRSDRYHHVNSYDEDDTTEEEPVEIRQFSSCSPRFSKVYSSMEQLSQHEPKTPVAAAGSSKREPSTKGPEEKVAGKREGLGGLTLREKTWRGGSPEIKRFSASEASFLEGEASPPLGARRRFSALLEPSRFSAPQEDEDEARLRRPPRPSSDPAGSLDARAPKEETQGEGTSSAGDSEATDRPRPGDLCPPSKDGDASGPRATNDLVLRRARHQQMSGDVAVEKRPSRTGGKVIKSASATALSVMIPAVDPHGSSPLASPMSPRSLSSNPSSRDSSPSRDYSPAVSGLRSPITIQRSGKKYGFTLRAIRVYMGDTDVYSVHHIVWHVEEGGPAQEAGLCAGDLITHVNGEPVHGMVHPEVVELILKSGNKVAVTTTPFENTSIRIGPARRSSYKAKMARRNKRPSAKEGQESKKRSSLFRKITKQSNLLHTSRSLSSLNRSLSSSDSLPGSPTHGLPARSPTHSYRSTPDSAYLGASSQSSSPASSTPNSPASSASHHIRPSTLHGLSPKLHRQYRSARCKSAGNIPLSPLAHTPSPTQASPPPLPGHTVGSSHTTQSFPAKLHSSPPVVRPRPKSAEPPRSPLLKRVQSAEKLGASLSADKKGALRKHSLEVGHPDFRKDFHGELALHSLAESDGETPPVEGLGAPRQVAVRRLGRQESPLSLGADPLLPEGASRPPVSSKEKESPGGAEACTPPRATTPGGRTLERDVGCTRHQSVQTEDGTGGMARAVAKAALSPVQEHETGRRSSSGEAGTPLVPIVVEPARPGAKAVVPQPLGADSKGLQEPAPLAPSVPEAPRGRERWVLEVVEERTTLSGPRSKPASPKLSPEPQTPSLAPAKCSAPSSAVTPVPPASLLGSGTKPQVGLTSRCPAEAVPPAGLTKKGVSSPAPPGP

Chain of NEK7 (Q8TDX7 whole entry): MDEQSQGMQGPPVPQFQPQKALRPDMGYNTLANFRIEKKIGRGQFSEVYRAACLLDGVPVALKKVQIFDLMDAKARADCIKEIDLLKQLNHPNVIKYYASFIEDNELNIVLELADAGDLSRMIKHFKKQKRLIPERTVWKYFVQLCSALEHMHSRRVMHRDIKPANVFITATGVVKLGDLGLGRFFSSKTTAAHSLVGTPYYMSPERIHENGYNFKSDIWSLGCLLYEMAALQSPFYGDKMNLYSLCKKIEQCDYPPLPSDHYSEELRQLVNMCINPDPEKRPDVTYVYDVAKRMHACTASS
T5 sequence (P42679 whole entry): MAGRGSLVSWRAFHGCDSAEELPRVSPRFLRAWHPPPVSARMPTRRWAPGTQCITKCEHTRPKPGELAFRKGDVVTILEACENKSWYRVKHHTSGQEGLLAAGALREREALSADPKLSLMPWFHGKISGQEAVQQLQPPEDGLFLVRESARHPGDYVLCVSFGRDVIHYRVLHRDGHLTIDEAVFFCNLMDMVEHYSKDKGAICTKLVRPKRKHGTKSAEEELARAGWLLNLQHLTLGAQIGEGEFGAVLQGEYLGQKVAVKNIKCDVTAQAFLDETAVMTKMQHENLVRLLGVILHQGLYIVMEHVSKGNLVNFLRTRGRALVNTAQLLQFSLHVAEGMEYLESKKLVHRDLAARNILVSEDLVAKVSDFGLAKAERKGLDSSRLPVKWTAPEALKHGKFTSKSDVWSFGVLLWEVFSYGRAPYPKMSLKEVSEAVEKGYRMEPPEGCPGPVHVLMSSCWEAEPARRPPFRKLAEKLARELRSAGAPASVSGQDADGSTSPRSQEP
T4 sequence (Q12852 whole entry): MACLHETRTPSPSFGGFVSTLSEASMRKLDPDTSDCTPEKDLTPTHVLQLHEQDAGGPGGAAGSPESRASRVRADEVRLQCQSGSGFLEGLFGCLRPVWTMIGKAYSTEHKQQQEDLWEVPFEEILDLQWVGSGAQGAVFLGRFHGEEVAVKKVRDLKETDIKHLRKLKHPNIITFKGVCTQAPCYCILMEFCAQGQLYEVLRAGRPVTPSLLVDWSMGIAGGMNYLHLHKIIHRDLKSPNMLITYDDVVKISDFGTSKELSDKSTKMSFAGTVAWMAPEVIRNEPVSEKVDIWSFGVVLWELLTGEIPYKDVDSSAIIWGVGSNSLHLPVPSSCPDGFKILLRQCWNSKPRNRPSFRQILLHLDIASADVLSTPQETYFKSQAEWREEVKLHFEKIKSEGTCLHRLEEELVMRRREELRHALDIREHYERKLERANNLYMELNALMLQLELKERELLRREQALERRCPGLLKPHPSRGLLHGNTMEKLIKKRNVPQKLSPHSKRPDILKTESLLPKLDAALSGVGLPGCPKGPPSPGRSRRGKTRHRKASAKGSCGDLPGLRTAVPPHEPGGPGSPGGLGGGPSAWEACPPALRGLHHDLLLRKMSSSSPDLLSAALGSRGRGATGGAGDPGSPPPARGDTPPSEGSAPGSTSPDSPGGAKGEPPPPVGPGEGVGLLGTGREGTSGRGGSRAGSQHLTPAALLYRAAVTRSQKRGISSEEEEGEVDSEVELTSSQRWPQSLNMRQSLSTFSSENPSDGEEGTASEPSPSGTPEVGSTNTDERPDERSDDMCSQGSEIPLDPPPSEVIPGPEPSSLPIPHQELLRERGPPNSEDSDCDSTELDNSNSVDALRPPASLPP
T2 sequence (O60674 whole entry): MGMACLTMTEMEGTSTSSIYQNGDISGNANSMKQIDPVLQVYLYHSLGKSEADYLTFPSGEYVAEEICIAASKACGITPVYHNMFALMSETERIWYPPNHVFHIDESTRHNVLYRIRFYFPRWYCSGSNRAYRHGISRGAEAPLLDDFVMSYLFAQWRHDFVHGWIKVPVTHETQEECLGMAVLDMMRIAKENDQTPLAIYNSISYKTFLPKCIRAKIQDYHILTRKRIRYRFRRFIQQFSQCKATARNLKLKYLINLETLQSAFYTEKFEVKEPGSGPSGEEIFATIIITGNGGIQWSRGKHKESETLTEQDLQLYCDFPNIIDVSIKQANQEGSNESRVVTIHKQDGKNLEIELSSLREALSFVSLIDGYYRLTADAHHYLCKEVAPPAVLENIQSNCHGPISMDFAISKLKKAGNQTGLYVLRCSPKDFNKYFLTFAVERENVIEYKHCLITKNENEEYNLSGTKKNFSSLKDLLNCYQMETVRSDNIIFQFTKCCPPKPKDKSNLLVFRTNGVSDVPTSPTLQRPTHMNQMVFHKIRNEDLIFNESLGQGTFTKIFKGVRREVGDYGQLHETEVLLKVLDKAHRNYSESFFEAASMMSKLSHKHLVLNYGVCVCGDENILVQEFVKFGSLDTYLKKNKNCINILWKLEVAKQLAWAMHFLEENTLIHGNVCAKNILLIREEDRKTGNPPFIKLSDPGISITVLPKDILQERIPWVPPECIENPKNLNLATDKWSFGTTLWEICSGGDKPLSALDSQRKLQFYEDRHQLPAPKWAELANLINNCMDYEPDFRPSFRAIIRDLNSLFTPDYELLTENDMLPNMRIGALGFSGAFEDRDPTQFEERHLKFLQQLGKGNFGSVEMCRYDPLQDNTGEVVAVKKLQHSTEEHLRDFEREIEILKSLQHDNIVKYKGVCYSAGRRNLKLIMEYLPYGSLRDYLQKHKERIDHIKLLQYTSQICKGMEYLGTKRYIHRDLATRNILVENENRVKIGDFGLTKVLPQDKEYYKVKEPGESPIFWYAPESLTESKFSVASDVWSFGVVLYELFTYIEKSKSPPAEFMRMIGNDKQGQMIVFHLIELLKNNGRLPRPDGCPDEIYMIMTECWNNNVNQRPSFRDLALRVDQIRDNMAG
Chain of AKT2 (P31751 whole entry): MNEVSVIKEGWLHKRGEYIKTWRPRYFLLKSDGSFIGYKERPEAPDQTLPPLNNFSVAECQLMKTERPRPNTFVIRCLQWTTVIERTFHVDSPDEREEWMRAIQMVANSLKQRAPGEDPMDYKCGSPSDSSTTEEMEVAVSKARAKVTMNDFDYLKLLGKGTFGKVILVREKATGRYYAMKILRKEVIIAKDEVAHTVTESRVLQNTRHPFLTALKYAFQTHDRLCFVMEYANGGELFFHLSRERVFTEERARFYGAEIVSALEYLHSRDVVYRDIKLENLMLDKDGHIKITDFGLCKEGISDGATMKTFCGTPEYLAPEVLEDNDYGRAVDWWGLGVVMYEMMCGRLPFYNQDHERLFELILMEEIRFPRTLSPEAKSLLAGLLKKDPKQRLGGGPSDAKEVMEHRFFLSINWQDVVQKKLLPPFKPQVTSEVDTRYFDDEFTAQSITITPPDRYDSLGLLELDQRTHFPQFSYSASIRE

SMILES: c1ccc2c(c1)Sc1ccccc1N2CCN1CCOCC1 [J54]
- remaining binding [1]: 97%
- remaining binding [2]: 100%
- remaining binding [3]: 31%
- remaining binding [4]: 96%
- remaining binding [5]: 89%
- remaining binding [6]: 94%
- remaining binding [7]: 100%
- remaining binding [8]: 88%
- remaining binding [9]: 100%
- remaining binding [10]: 90%
- remaining binding [11]: 95%
- remaining binding [12]: 79%
- remaining binding [13]: 94%
- remaining binding [14]: 100%
- remaining binding [15]: 97%
- remaining binding [16]: 95%
- remaining binding [17]: 100%
- remaining binding [18]: 100%
- remaining binding [19]: 100%
